Results taken from patent US7947854B2, “Bis-cationic compounds and use thereof” (The University of Sydney, priority 2003, dated 2011).
Values after ≈ are worked out from the molar mass of the structure shown. Read-outs that look alike come from different tables or passages of the source.

Experiments:
Assay type in all cases: cell-based
[1] = test system: M. canis; assay: Susceptibility of dermatophytes, broth microdilution NCCLS M38-P; conditions: 100% growth inhibition, 28° C.; for MIC: Microsporum canis
Protocol: (§1) Isolates were tested using the method described in the National Committee for Clinical Laboratory Standards (NCCLS) document M38-P for filamentous fungi, with dermatophyte specific modifications described by Fernández-Torres et al, Current topics in Medical Mycology, 14-19 Feb. 1999.
(§2) Five dermatophyte isolates were, namely; T. rubrum, T. mentagrophytes, T. tonsurans, M. canis and M. gypseum, all of which produce lipases and some, phospholipase. These isolates were tested by the broth microdilution method according to NCCLS document M38-P, for activity against selected antifungal agents. In addition, ten randomly selected isolates of T. tonsurans were also tested. All isolates were maintained on SDA at 28° C. Candida parapsilosis (ATCC 20019) was used as the reference control is organism.
(§3) The microdilution plates used were a single lot of RPMI 1640 basal medium (JRH bioScience Inc. Lenexa, Kans., USA) with L-glutamine and without sodium bicarbonate, buffered to pH 7.0, at 25° C., with 0.165 M (MOPS) morpholinepropanesulfonic acid (Sigma).
(§4) Powdered drugs were dissolved in 100% dimethyl sulfoxide (DMSO), at concentrations 100 times higher than the final test concentration. All compounds were prepared in 100% (DMSO). For ITRA and TRB, two-fold drug dilutions were prepared in 100% DMSO at 100 times the final concentration, followed by further dilution 1:50 in RPMI medium, to yield 2× the final strength required for the test.
(§5) Fungal cultures were subcultured onto Potato Dextrose Agar and grown at 28° C. for 7-10 days. Fungal suspensions were covered with 5 ml of distilled water, and then colonies were scraped off with cotton tipped swabs. The resulting mixture of conidia and hyphae elements was withdrawn, transferred to a sterile tube and then vortexed with glass beads. After the particles settled, the upper homogeneous suspension was collected and its density adjusted by a densitometer to a 0.5 McFarland standard at the wavelength of 530 nm (80-85% transmittance). These stock suspensions were then diluted 1:50 with RPMI medium to obtain final working inoculum concentration ranging from 0.3×10^4 to 9×10^4 CFU/ml. Inoculum quantification was performed by plating 100 μl of the 1:1000 dilution of the adjusted inoculum on SDA plates, incubated at 28° C., and after 7 days of incubation, the colonies were counted.
(§6) Testing was based on NCCLS M38-P document for testing filamentous moulds. Testing was carried out in sterile 96-well flat bottomed microtitre plate. Columns 1 and 3 to 12 were filled with 100 μl of RPMI medium, leaving column 2 unfilled. Columns 1, 2 and 3 were filled with 100 μl of 2× drug concentration. Serial dilutions were then made by transferring 100 μl from column 3 to each column up to column 11, and 100 μl from column 11 was discarded. Column 12 served as drug free growth control. Finally, 100 μl of inoculum suspension was added to all wells except column 1, which acted as sterility control (Columns 1 and 12 served as sterility and growth control respectively). Plates were incubated at 28° C. for 7 days, and read at 3 days and 7 days of incubation. All testing was performed in duplicate, on three separate occasions.
(§7) Growth in microtitre trays were read by visual inspection by using an illuminated-reversed mirror. Growth in each well was compared with the “growth control” drug free well. The MIC end point for all the drugs was chosen to be the first well with 100% growth inhibition (i.e. the lowest drug concentration inhibiting growth).

[2] = test system: M. gypseum; assay: as above; conditions: 100% growth inhibition, 28° C.; for MIC: Nannizzia gypsea
Protocol: as §1, §2, §3, §4, §5, §6, §7

[3] = test system: T. mentagrophytes; assay: as above; conditions: 100% growth inhibition, 28° C.; for MIC: Trichophyton mentagrophytes
Protocol: as §1, §2, §3, §4, §5, §6, §7

[4] = test system: T. rubrum; assay: as above; conditions: 100% growth inhibition, 28° C.; for MIC: Trichophyton rubrum
Protocol: as §1, §2, §3, §4, §5, §6, §7

[5] = test system: T. tonsurans; assay: as above; conditions: 100% growth inhibition, 28° C.; for MIC: Trichophyton tonsurans
Protocol: as §1, §2, §3, §4, §5, §6, §7

[6] = test system: ten randomly selected isolates of T. tonsurans; assay: Susceptibility of ten T. tonsurans isolates, broth microdilution NCCLS M38-P; conditions: for MIC: Trichophyton tonsurans
Protocol: as §1, §2, §3, §4, §5, §6, §7

Structure (SMILES): CN(C/C=C/C#CC(C)(C)C)Cc1cccc2ccccc12 [Terbinafine]
- MIC Range, M. canis [1]: 0.03 µg/mL (≈ 0.103 µM)
- MIC ([1]; read-out: MIC GM, M. canis): 0.03 µg/mL (≈ 0.103 µM)
- MIC ([1]; read-out: MIC Mean, M. canis): 0.03 µg/mL (≈ 0.103 µM)
- MIC Range, M. gypseum [2]: 0.015 to 0.25 µg/mL
- MIC ([2]; read-out: MIC GM, M. gypseum): 0.077 µg/mL (≈ 0.264 µM)
- MIC ([2]; read-out: MIC Mean, M. gypseum): 0.122 µg/mL (≈ 0.419 µM)
- MIC Range, T. mentagrophyte [3]: 0.03 to 0.06 µg/mL
- MIC ([3]; read-out: MIC GM, T. mentagrophyte): 0.034 µg/mL (≈ 0.117 µM)
- MIC ([3]; read-out: MIC Mean, T. mentagrophyte): 0.035 µg/mL (≈ 0.12 µM)
- MIC Range, T. rubrum [4]: 0.007 to 0.06 µg/mL
- MIC ([4]; read-out: MIC GM, T. rubrum): 0.026 µg/mL (≈ 0.0892 µM)
- MIC ([4]; read-out: MIC Mean, T. rubrum): 0.032 µg/mL (≈ 0.11 µM)
- MIC Range, T. tonsurans [5]: 0.015 to 0.06 µg/mL
- MIC ([5]; read-out: MIC GM, T. tonsurans): 0.024 µg/mL (≈ 0.0824 µM)
- MIC ([5]; read-out: MIC Mean, T. tonsurans): 0.03 µg/mL (≈ 0.103 µM)
- MIC Range ([6]; T. tonsurans 1): 0.015 to 0.06 µg/mL
- MIC Range ([6]; T. tonsurans 2): 0.015 to 0.06 µg/mL
- MIC Range ([6]; T. tonsurans 4): 0.015 to 0.06 µg/mL
- MIC Range ([6]; T. tonsurans 5): 0.03 to 0.06 µg/mL
- MIC Range ([6]; T. tonsurans 6): 0.03 to 0.125 µg/mL
- MIC Range ([6]; T. tonsurans 7): 0.015 to 0.06 µg/mL
- MIC Range ([6]; T. tonsurans 8): 0.06 to 0.125 µg/mL
- MIC Range ([6]; T. tonsurans 9): 0.06 to 0.125 µg/mL
- MIC Range ([6]; T. tonsurans 10): 0.015 to 0.06 µg/mL
- MIC Range ([6]; T.tonsurans 3): 0.015 to 0.125 µg/mL
- MIC ([6]; T. tonsurans 1, read-out: MIC GM): 0.034 µg/mL (≈ 0.117 µM)
- MIC ([6]; T. tonsurans 2, read-out: MIC GM): 0.036 µg/mL (≈ 0.124 µM)
- MIC ([6]; T. tonsurans 2, read-out: MIC Mean): 0.041 µg/mL (≈ 0.141 µM)
- MIC ([6]; T. tonsurans 4, read-out: MIC Mean): 0.0275 µg/mL (≈ 0.0944 µM)
- MIC ([6]; T. tonsurans 5, read-out: MIC GM): 0.048 µg/mL (≈ 0.165 µM)
- MIC ([6]; T. tonsurans 5, read-out: MIC Mean): 0.05 µg/mL (≈ 0.172 µM)
- MIC ([6]; T. tonsurans 6, read-out: MIC GM): 0.061 µg/mL (≈ 0.209 µM)
- MIC ([6]; T. tonsurans 6, read-out: MIC Mean): 0.071 µg/mL (≈ 0.244 µM)
- MIC ([6]; T. tonsurans 7, read-out: MIC GM): 0.038 µg/mL (≈ 0.13 µM)
- MIC ([6]; T. tonsurans 7, read-out: MIC Mean): 0.045 µg/mL (≈ 0.154 µM)
- MIC ([6]; T. tonsurans 8, read-out: MIC GM): 0.068 µg/mL (≈ 0.233 µM)
- MIC ([6]; T. tonsurans 8, read-out: MIC Mean): 0.07 µg/mL (≈ 0.24 µM)
- MIC ([6]; T. tonsurans 9, read-out: MIC GM): 0.077 µg/mL (≈ 0.264 µM)
- MIC ([6]; T. tonsurans 9, read-out: MIC Mean): 0.081 µg/mL (≈ 0.278 µM)
- MIC ([6]; T. tonsurans 10, read-out: MIC Mean): 0.035 µg/mL (≈ 0.12 µM)
- MIC ([6]; T.tonsurans 3, read-out: MIC GM): 0.038 µg/mL (≈ 0.13 µM)
- MIC ([6]; T.tonsurans 3, read-out: MIC Mean): 0.051 µg/mL (≈ 0.175 µM)
- MIC ([6]; read-out: MIC Mean, T. tonsurans 1): 0.037 µg/mL (≈ 0.127 µM)
